Non-standard residues stand in square brackets, D forms with d. Residues, ends and D or L forms follow the SMILES beside them. NMeV = CN[C@H](C(=O)O)C(C)C; βAla = NCCC(=O)O
Key:
[1] = system: amelanotic hamster melanoma A-Mel-3; assay: Tumour growth (tumour area) in the dorsal skinfold chamber by video macroscopy; assay type: in vivo, Syrian Golden hamster; conditions: 30 mg kg^−1 i.p. every 12 h; for Tumour area: n=6, mean±s.e.m.
Protocol: (§1) For quantification of tumour angiogenesis, a dorsal skinfold chamber preparation consisting of two symmetrical titanium frames was surgically implanted into the dorsal skin as described earlier in detail ([Asaishi et al, 1981]; [Endrich et al, 1982]). This is considered to cause the least distress upon the animal because the dorsal skin is extremely expansible. Following implantation of the transparent chamber and a recovery period of 48 h from anaesthesia and microsurgery, preparations fulfilling the criteria of an intact microcirculation were implanted with 2×10^5 cells of the amelanotic melanoma of the hamster A-Mel-3 ([Fortner et al, 1961]). Fine polyethylene catheters (PE10, inner diameter 0.28 mm) were permanently inserted into the right jugular vein 48 h before first measurement to allow injection of fluorescent agents for intravital fluorescence microscopy.
(§2) Quantification of tumour angiogenesis using intravital fluorescence microscopy have been described in detail elsewhere ([Asaishi et al, 1981]; [Dellian et al, 1995], [1996]). In brief, the awake animal was trained to crawl into a transparent plastic tube and was placed on a custom-made stage under a modified Leitz microscope (Orthoplan; Leitz, Munich, Germany). FITC-labelled dextran (Sigma, Deisenhofen, Germany; MW 500000; 0.05–0.1 ml of a 5% solution in 0.9% NaCl) as a plasma marker and rhodamine 6G (Molecular Probes, Eugene, OR, USA; 0.04 ml of a 0.05% solution in 0.9% NaCl) to label white blood cells in vivo, were injected i.v. to visualise microcirculation and leucocyte–endothelium interaction, respectively. […] Selective observation of FITC-labelled plasma was possible using epi-illumination with a 100 W mercury lamp attached to a Ploemopack illuminator with a Leitz I2/3 filter block (excitation 450–490 nm, emission ⩽515 nm) and rhodamine 6G-stained leucocytes were visualised using a Leitz N2 filter block (excitation 530–560 nm, emission ⩽580 nm). Intravital microscopy was performed 3, 5, 9 and 13 days after implantation of the tumour cells. At least 3–5 sites of interest per animal were randomly selected in centre and periphery of the tumour. Images were acquired by a SIT video camera (C2400-08; Hamamatsu Herrsching, Germany) and recorded on S-VHS video tape (Sony) for subsequent analysis. Parallel to microvascular observations the area covered by tumour in the chamber preparation was registered on videotape using a Leitz macroscope with video camera (XC-77; Sony) to evaluate tumour growth. The tumour area (mm^2) was quantified from videotape by digital image analysis.
(§3) The cyclic integrin αv antagonist EMD121974 (cyclic Arg-Gly-Asp-D-Phe(N-methyl)Val) ([Dechantsreiter et al, 1999]) and the control peptide EMD135981 (cyclic Arg-β-Ala-Asp-D-Phe(N-methyl)Val) were synthesised and characterised at Merck KgAa (Darmstadt, Germany). In pilot studies pharmacokinetics of the peptides were compared after intravenous and intraperitoneal injection in hamsters. […] Therefore, we chose the following set-up for administration: Peptides were dissolved in PBS (10 mg ml^−1). One day after implantation of tumour cells, animals were randomly assigned to two groups (n=6) and RGD-peptide EMD121974 or control-peptide EMD135981 were given i.p. every 12 h (30 mg kg^−1 b.w.) until the end of the experiments.

[2] = Pilot pharmacokinetics after intravenous and intraperitoneal injection; assay type: in vivo, hamster; conditions: hamsters, pilot study
Protocol: as §3

[3] = Tolerability during treatment (side effects, body weight, behaviour); assay type: in vivo, Syrian Golden hamster; conditions: 30 mg kg^−1 i.p. twice a day
Protocol: Experiments were performed with male Syrian Golden Hamsters (6–8 weeks old, 50–60 g body weight (bw)) in accordance with institutional guidelines after approval of the animal committee of the Bavarian state. The animals were housed one per cage and had free access to tap water and standard laboratory food throughout the experiments. Animals were inspected at least two times a day by specialised animal colony staff to assure a normal clinical condition (including appearance, posture, behaviour and physiological responses). Particular attention was given to body weight and any signs of discomfort, ulceration or inflammation. All surgical procedures were performed under pentobarbital anaesthesia (50 mg kg^−1 b.w., i.p.; Nembutal, Sanofia-Leva, Hannover, Germany). The experiments met all the standards required by the UKCCCR guidelines for the welfare of animals in experimental neoplasia (United Kingdom Co-ordinating Committee on Cancer Research ([UKCCCR), 1998]).
(§4) The cyclic integrin αv antagonist EMD121974 (cyclic Arg-Gly-Asp-D-Phe(N-methyl)Val) ([Dechantsreiter et al, 1999]) and the control peptide EMD135981 (cyclic Arg-β-Ala-Asp-D-Phe(N-methyl)Val) were synthesised and characterised at Merck KgAa (Darmstadt, Germany). In pilot studies pharmacokinetics of the peptides were compared after intravenous and intraperitoneal injection in hamsters. […]

[4] = system: amelanotic hamster melanoma A-Mel-3; assay: Intravital fluorescence microscopy of tumour angiogenesis and microcirculation in the dorsal skinfold chamber; assay type: in vivo, Syrian Golden hamster; conditions: for Appearance of tumour vasculature: 3 days after tumour cell implantation, FITC-Dextran plasma marker; for Functional vessel density (FVD): 30 mg kg^−1 b.w. i.p. every 12 h from day 1, n=6, mean±s.e.m.; for Leucocyte–endothelium interaction in tumour microvessels: rhodamine 6G-stained leucocytes
Protocol: as §1, §2
Analysis of microcirculatory parameters was performed off-line from video tape by an image analysis system (Cap Image; Zeintl, Heidelberg, Germany). This system described in detail by [Zeintl et al (1989)] and [Klyscz et al (1997)] allows measurement of functional vessel density (FVD) as a parameter of angiogenic activity ([Dellian et al, 1996]). FVD is defined as the total length of perfused microvessels per unit area of observation and is given in cm^−1. Red blood cell velocity (vRBC) was quantified with the line shift diagram method according to [Klyscz et al (1997)] in mm s^−1. Rolling leucocytes were defined as population of cells temporarily interacting with the vessel wall and thus having a velocity at least 50% below vRBC in the same vessel. Adherent leucocytes were given as the number of leucocytes remaining stationary for at least 30 s per square millimetre of vessel wall surface ([Atherton and Born, 1972]; [Dellian et al, 1996]).
as §4

[5] = system: subcutaneous A-Mel-3; assay: Growth and lymph node metastasis of subcutaneous A-Mel-3 tumours; assay type: in vivo, Syrian Golden hamster; conditions: for Subcutaneous tumour volume / growth pattern: calliper measurement every other day from day 5, 30 mg kg^−1 i.p. every 12 h
Protocol: Male Syrian Golden Hamsters (weight, age and housing as described above) were anaesthetised with pentobarbital and the dorsal skin was shaven and chemically depilated (Pilcamed, Schwarzkopf, Germany). Cells (4 to 6×10^6) of the A-Mel-3 were suspended in a 10 μl volume and injected s.c. over the lumbosacral region of the dorsal skin. This is considered to cause the least distress upon the animal because the dorsal skin is extremely expansible. Starting on day 5 after tumour cell implantation, the longer (l) and shorter (w) perpendicular axes and the height (h) of each tumour nodule were measured with callipers every other day. Metastases of the animals were determined by palpation of axillar and inguinal lymph nodes. The day when metastases were first palpable the animal was defined as metastasised. To minimise the pain and distress of the animals no biopsies were taken from the lymph nodes during the observation time. This was due to the known fact that the axillar or inguinal lymph nodes were the most frequent sites of metastasis formation ([Fortner et al, 1961]; [Weiss et al, 1990]). After the end of the experiments when animals were euthanised, biopsies were taken to confirm histologically the invasion of the lymph nodes. Tumour volume was calculated according to the formula Vt=0.837×l×w×h ([Weiss et al, 1990]).
as §3
Results are presented as mean±s.e.m. Data were evaluated using Wilcoxon–Mann–Whitney U and Kruskal–Wallis test, respectively (SigmaStat; Jandel Scientific, San Rafael, CA, USA). Metastasis analysis was performed according to the Kaplan–Meier method ([Kaplan and Meier, 1958]) and the differences were compared for statistical significance using the Cox-F test ([Lee, 1975], [1980]) with the statistical software program Statistica (StatSoft, Inc, 1997, Tulsa, OK, USA). P values smaller than 5% were considered to be significant.

[6] = day 13 after tumour implantation

SMILES | Tumour area ([1]; day 9) [mm^2] | Tumour area ([1]; day 13) [mm^2] | Tumour area versus controls ([1]; days 3 and 5) | half-life ([2]; Syrian Golden, hamster, plasma, ip, after intraperitoneal injection, read-out: Plasma half-life time) [min] | Area under the curve, intraperitoneal versus intravenous administration [2] | Side effects in treated animals [3] | Body weight ([3]; control and treated animals) | Appearance of tumour vasculature [4] | Functional vessel density (FVD) ([4]; day 3 after tumour cell implantation) [cm⁻¹] | Functional vessel density (FVD) [4, 6] [cm⁻¹] | Red blood cell velocity (vRBC) versus control peptide ([4]; days 9 and 13, 30 mg kg^−1 i.p. every 12 h) | Vessel diameters, RGD peptide versus control peptide ([4]; intravital microscopy, 30 mg kg^−1 i.p. every 12 h) | Leucocyte–endothelium interaction in tumour microvessels ([4]; 30 mg kg^−1 i.p. every 12 h) | Subcutaneous tumour volume / growth pattern [5] | Effect on tumour growth of 30 mg kg^−1 every 12 h compared to 30 mg every 2 days ([5]; pilot study) | Day on which FVD reached its maximum value ([4]; measurements on days 3, 5, 9 and 13, 30 mg kg^−1 i.p. every 12 h) [days] | Day lymph node metastasis first palpable ([5]; in two animals of the group, palpation) [days] | Palpable lymph node metastasis on day 11 ([5]; two days after day 9, palpation of axillar and inguinal lymph nodes)
CC(C)[C@H]1C(=O)N[C@@H](CCCNC(=N)N)C(=O)NCC(=O)N[C@@H](CC(=O)O)C(=O)N[C@H](Cc2ccccc2)C(=O)N1C [EMD121974, cyclic Arg-Gly-Asp-D-Phe(N-methyl)Val] | 20.5±1.4 | 49.1±4.8 | slightly smaller than controls | 47 | similar | no side effects were observed | increased similar in control and treated animals | only individual sprouts as signs of early angiogenesis were visible | 32.7 ± 12.1 | 156.9 ± 15.6 | slightly lower | no differences | almost absent | significantly smaller in comparison to controls on days 7 until 15 | slightly higher effect on tumour growth | – | – | –
CC(C)[C@H]1C(=O)N[C@@H](CCCNC(=N)N)C(=O)NCCC(=O)N[C@@H](CC(=O)O)C(=O)N[C@H](Cc2ccccc2)C(=O)N1C [EMD135981, cyclic Arg-β-Ala-Asp-D-Phe(N-methyl)Val, reference compound] (cyclo(D[dF][NMeV]R[βAla])) | 28.1±3.2 | 80.94±6.1 | – | – | – | – | – | dense, chaotic structured network | – | 108.2 ± 10.6 | – | – | almost absent | nearly exponential growth | – | 5 | 9 | palpable metastasis was found in all control animals
